According to US4868210A, “Antihyperlipidemic and antiatherosclerotic compounds and compositions” (priority 1988, dated 1989):

Biological target: T1, acyl-CoA:cholesterol acyltransferase (ACAT) (Oryctolagus cuniculus, UniProt G1SFD9)
T1 construct: tissue preparation containing rabbit intestinal microsomes; from tissue; host or cells: rabbit intestinal microsomes
T1 sequence (G1SFD9 1-524): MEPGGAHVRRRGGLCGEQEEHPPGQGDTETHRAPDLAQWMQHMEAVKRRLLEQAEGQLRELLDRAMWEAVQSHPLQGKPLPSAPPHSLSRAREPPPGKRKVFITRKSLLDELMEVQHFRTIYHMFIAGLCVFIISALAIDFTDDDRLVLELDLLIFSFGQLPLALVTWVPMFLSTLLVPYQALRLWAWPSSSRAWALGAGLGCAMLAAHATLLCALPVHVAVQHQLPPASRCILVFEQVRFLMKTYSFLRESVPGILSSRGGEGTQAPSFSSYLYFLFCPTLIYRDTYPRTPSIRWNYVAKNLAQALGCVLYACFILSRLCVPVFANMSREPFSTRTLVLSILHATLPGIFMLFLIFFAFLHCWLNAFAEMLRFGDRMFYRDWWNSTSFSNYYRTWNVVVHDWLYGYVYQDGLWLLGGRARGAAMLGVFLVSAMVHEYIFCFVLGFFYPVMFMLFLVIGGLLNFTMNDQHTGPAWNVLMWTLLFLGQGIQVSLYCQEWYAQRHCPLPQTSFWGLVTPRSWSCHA
Assay: In vitro ACAT inhibition (radiolabeled cholesterol oleate formation from radiolabeled oleic acid in rabbit intestinal microsomes)
Type: biochemical
Settings: concentration required to inhibit 50% the acylation of cholesterol by oleic acid
Protocol: The ability of representative compounds of the present invention to inhibit ACAT was measured using an in vitro test more fully described in Field, F. J. and Salone, R. G., Biochemica et Biophysica 712: 557-570 (1982). The test assesses the ability of a test compound to inhibit the acylation of cholesterol by oleic acid by measuring the amount of radiolabeled cholesterol oleate formed from radiolabeled oleic acid in a tissue preparation containing rabbit intestinal microsomes.

Compound | IC50
CC(C)c1cccc(C(C)C)c1NC(=O)NC1CCOc2ccccc2C1 (stereo not shown) [Example 8, N-[2,6-bis(1-methylethyl)phenyl]-N'-(2,3,4,5-tetrahydrobenzoxepin-4-yl)urea] | 52 nM
CC(C)c1cccc(C(C)C)c1NC(=O)NC1CCc2ccccc2C1 (stereo not shown) [Example 9, N-[2,6-bis(1-methylethyl)phenyl]-N'-(1,2,3,4-tetrahydro-2-naphthalenyl)urea] | 41 nM
Cc1cccc(C)c1NC(=O)NC1CC(C)(C)c2ccccc2C1(C)C (stereo not shown) [Example 12, N-(2,6-dimethylphenyl)-N'-(1,2,3,4-tetrahydro-1,1,4,4-tetramethyl-2-naphthalenyl)urea] | 270 nM

Continued by falling IC50, values first:

IC50 | Compound
100 nM | CC(C)c1cccc(C(C)C)c1NC(=O)NC1COc2ccccc2C1 (stereo not shown) [Example 10, N-[2,6-bis(1-methylethyl)phenyl]-N'-(3,4-dihydro-2H-1-benzopyran-3-yl)urea]
89 nM | CC(C)c1cccc(C(C)C)c1NC(=O)NC1CC(C)(C)c2ccccc2C1(C)C (stereo not shown) [Example 13, N-[2,6-bis(1-methylethyl)phenyl]-N'-(1,2,3,4-tetrahydro-1,1,4,4-tetramethyl-2-naphthalenyl)urea]
84 nM | COc1ccc2c(c1)CC(CNC(=O)Nc1c(C(C)C)cccc1C(C)C)CC2 (stereo not shown) [Example 11, N-[2,6-bis(1-methylethyl)phenyl]-N'-[(1,2,3,4-tetrahydro-7-methoxy-2-naphthalenyl)methyl]urea]
27 nM | CC(C)c1cccc(C(C)C)c1NC(=O)NCC1c2ccccc2-c2ccccc21 [Example 1, N-[2,6-bis(1-methylethyl)phenyl]-N'-(9H-fluoren-9-ylmethyl)urea]
